{"source": "patent US5356886A", "about": "“Antiviral phosphono-alken derivatives of purines” (Beecham Group p.l.c., priority 1990, dated 1994)", "assay_type_in_all_cases": "cell-based", "key": {"[1]": {"assay": "Cell cytotoxicity test (MTT) in peripheral human lymphocytes", "protocol": "Peripheral human lymphocytes were isolated by density gradient centrifugation from blood donations of healthy volunteers. The `buffy coat`-fractions of these donations were provided by blood donation centres.\nThe buffy coat was diluted 1:1 with sterile phosphate buffered saline (PBS; 50 mM sodium phosphate, pH 7.4, 0,9% sodium chloride) and subsequently layered over Ficoll. Following centrifugation (30 minutes at 400×g) the supernatant was discarded and the interphase containing the lymphocytes was recovered. The lymphocytes were washed two times in PBS and were resuspended finally in cell culture medium.\nA viability staining was performed by means of the trypan blue dye-exclusion method. The concentration of cells in the suspension and the percentage of viable cells were calculated. […]\nThe lymphocytes were cultivated in an incubator with a humidified atmosphere and 5% CO2 for 48 to 64 hours at 37° C. Following this incubation period, cells were harvested by centrifugation, resuspended in cell culture medium and counted. […]\nSurvival and proliferation of the lymphocytes grown in the presence of the compound were measured by a quantitative colorimetric assay. […] The amount of product which is a function of cell number and metabolic cellular activity was quantified photometrically. By this assay, potential cytotoxic and cytostatic effects of compounds towards lymphocytes were detected precisely. […]"}, "HSV-1": {"system": "HSV-1", "assay": "Plaque Reduction Test for Herpes Simplex Virus 1 (strain SC16) in MRC-5 cells", "conditions": "Human alphaherpesvirus 1, MRC5", "protocol": "MRC-5 cells were grown to confluence in 24 well multi-dishes (well diameter=1.5 cm). The drained cell monolayers were each infected with approximately 50 infectious particles of herpes simplex virus 1 (HSV-1; strain SC16) or herpes simplex virus 2 (HSV-2; strain MS) in 100 μl of phosphate-buffered saline. The virus was adsorbed for 1 hour at room temperature. After adsorption, residual inoculum was removed from each well and replaced with 0.5 ml of Eagle's MEM containing 5% newborn calf serum and 0.9% agarose (A37). Once the agarose had set, dilutions of the test compound, which had been prepared in Eagle's MEM (containing 5% newborn calf serum), were added, each well receiving 0.5 ml of liquid overlay. The test compound was diluted to give the following series of concentrations: 200, 60, 20, 6 . . . 0.06 μg/ml; final concentrations in the assay ranged, therefore, between 100 μg/ml and 0.03 μg/ml. The infected cultures were incubated at 37° C. in a humidified atmosphere of 5% CO2 until plaques were clearly visible (usually 1 day).\nCultures from 1 and 2 were fixed in formal saline, the agarose overlays were carefully washed off, and then the cell monolayers were stained with carbol fuchsin. A stereo microscope was used to count plaques. The IC50 (concentration of drug which inhibits the number of plaques formed by 50% relative to the number of plaques observed in virus control monolayers) of the test compound was calculated. In addition, the monolayers were examined for evidence of drug-induced cytotoxicity; the minimum concentration at which cytotoxicity occurs was recorded."}, "[2]": {"assay": "Cytotoxicity for the cell monolayers in the FIV test", "conditions": "cat, crandell feline kidney cells, no cytotoxicity noted with concentrations up to this value, read-out: cytotoxicity for the cell monolayers", "protocol": "Drug stocks were diluted to the appropriate concentration, in medium (e.g. 10 mg/ml to 200 μg/ml). 150 μl of each drug was dispersed in triplicate, across the top row of a microtitre plate (150 μl of media for virus and cell control, vc and cc). 100 μl of medium was dispersed into all other wells. The wells were serially diluted moving down the plate, removing 50 μl from each well and transferring to the next row. 50 μl was discarded from the bottom wells.\nTrypsinisation was carried out from a confluent cell monolayer of Crandell Feline Kidney cells, in 10% trypsin, followed by resuspension in media at 1×10^6 per ml, ensuring that a single cell suspension is achieved. (Media: 90% 1×RPMI, 25 mM hepes buffer; 10% Foetal calf serum; 2% Glutamine; 2% penecillin/streptomycin.)\nFIV Glasgow 8 virus was diluted to 4× the required virus challenge in medium (40 TCID50 /ml). The virus infected medium was mixed with an equal volume of cell suspension, 100 μl of which was aliquoted into each well of the drug plate, except cell control. 100 μl of cell suspension at 5×10^4 per ml was added to the latter. This gives a final cell concentration of 2.5×10^4 per ml, and drug range 100-0.03 μg/ml. The plates were incubated at 37° C., 5% CO2 in an air humidified incabator for 11-14 days. The cells were fixed by immersing the plates in formoli saline (10% formaldehyde; 10% 1.5M NaCl; 80% water) for 1 hour minimum. The cells were stained with 10% crystal violet for 15 minutes.\nThe assay was scored by looking for presence of syncitia and, virus induced cytopathic effect in the cell monolayers, under a microscope. Results are given as the minimum concentration of drug inhibiting syncitial production, minimum inhibitory concentration, MIC."}}}
{"smiles": "Nc1nc2c(ncn2OCC/C=C/P(=O)(O)O)c(=O)[nH]1", "note": "[Example 1, (E)-9-(4-phosphonobut-3-enyloxy)guanine]", "values": [{"measurement": "CC50 at 96 h", "setting": "[1]", "value": 1000, "unit": "nM"}, {"measurement": "cytotoxicity at 0.1 µM", "setting": "[1]; at 0.1 μM, read-out: Slight toxicity (inhibition)", "value": 18, "unit": "%"}, {"measurement": "IC50", "setting": "HSV-1", "value": "< 3", "unit": "µg/mL"}, {"measurement": "MCC", "setting": "[2]", "value": "> 100", "unit": "µg/mL"}]}
